Tested on: 317291-083-R-J1-PDC complex spheroid growth
Assay: Anticancer human tumor 317291-083-R-J1-PDC patient-derived soft tissue sarcoma cell line growth inhibition [Asc]
Details: for IC50: curve of first compound; for viability, T/C: stronger effect = lower value; active = viability on the fitted dose curve at most 10% of control; inactive = the rest
Procedure, shortened: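 Tumor cells were grown as complex spheroids with human endothelial cells (HUVEC) and human mesenchymal stem cells as stroma. Agents were tested alone and in combination, in half-log steps down from the clinical Cmax, or from 10 microM where Cmax was unknown.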

[1] = second compound 0.00949 µM, first compound 0.0316 µM
[2] = second compound 0.00949 µM, first compound 0.1 µM
[3] = second compound 0.00949 µM, first compound 0.316 µM
[4] = second compound 0.00949 µM, first compound 1 µM
[5] = second compound 0.00949 µM, first compound 3.16 µM
[6] = second compound 0.00949 µM, first compound 10 µM
[7] = second compound 0.03 µM, first compound 0.0316 µM
[8] = second compound 0.03 µM, first compound 0.1 µM
[9] = second compound 0.03 µM, first compound 0.316 µM
[10] = second compound 0.03 µM, first compound 1 µM
[11] = second compound 0.03 µM, first compound 3.16 µM
[12] = second compound 0.03 µM, first compound 10 µM
[13] = second compound 0.0949 µM, first compound 0.0316 µM
[14] = second compound 0.0949 µM, first compound 0.1 µM
[15] = second compound 0.0949 µM, first compound 0.316 µM
[16] = second compound 0.0949 µM, first compound 1 µM
[17] = second compound 0.0949 µM, first compound 3.16 µM
[18] = second compound 0.0949 µM, first compound 10 µM
[19] = second compound 0.3 µM, first compound 0.0316 µM
[20] = second compound 0.3 µM, first compound 0.1 µM
[21] = second compound 0.3 µM, first compound 0.316 µM
[22] = second compound 0.3 µM, first compound 1 µM
[23] = second compound 0.3 µM, first compound 3.16 µM
[24] = second compound 0.3 µM, first compound 10 µM
[25] = second compound 0.949 µM, first compound 0.0316 µM
[26] = second compound 0.949 µM, first compound 0.1 µM
[27] = second compound 0.949 µM, first compound 0.316 µM
[28] = second compound 0.949 µM, first compound 1 µM
[29] = second compound 0.949 µM, first compound 3.16 µM
[30] = second compound 0.949 µM, first compound 10 µM
[31] = second compound 3 µM, first compound 0.0316 µM
[32] = second compound 3 µM, first compound 0.1 µM
[33] = second compound 3 µM, first compound 0.316 µM
[34] = second compound 3 µM, first compound 1 µM
[35] = second compound 3 µM, first compound 3.16 µM
[36] = second compound 3 µM, first compound 10 µM
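Note: compound exposure lasted seven days after spheroids formed for three days.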
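Throughout, for viability, T/C: 100% = DMSO vehicle control wells.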

C=C(F)C(=O)N1CCN(c2nc(OCC3CCCN3C)nc3c2CCN(c2cccc4cccc(Cl)c24)C3)CC1CC#N (stereo unspecified) + CCN1C(C(=O)NC23CCC(C(=O)O)(CC2)CC3)C(c2cccc(Cl)c2F)C2(C(=O)Nc3cc(Cl)ccc32)C12CCCCC2
inactive: viability, T/C [1] 105% | viability, T/C [2] 101% | viability, T/C [3] 90.2% | viability, T/C [4] 93.2% | viability, T/C [5] 39.3% | viability, T/C [7] 92.7% | viability, T/C [8] 91.8% | viability, T/C [9] 99.3% | viability, T/C [10] 95.2% | viability, T/C [11] 45.1% | viability, T/C [13] 106% | viability, T/C [14] 89% | viability, T/C [15] 122% | viability, T/C [16] 98.7% | viability, T/C [17] 61.9% | viability, T/C [19] 106% | viability, T/C [20] 92.4% | viability, T/C [21] 92.7% | viability, T/C [22] 86.8% | viability, T/C [23] 24.8% | viability, T/C [25] 104% | viability, T/C [26] 93% | viability, T/C [27] 91.9% | viability, T/C [28] 98% | viability, T/C [29] 36.1% | viability, T/C [31] 78.2% | viability, T/C [32] 91.9% | viability, T/C [33] 85.5% | viability, T/C [34] 64.5% | viability, T/C [35] 41.4%
2430 nM: IC50 (second compound 0.949 µM)
1980 nM: IC50 (second compound 0.3 µM)
active: viability, T/C [6] 0.31% | viability, T/C [12] 0.14% | viability, T/C [18] 0.14% | viability, T/C [24] 0.21% | viability, T/C [30] 0.19% | viability, T/C [36] 1.13%
2110 nM: IC50 (second compound 3 µM)
3940 nM: IC50 (second compound 0.0949 µM)
2510 nM: IC50 (second compound 0.00949 µM)
2830 nM: IC50 (second compound 0.03 µM)

C=CC(=O)N1CCN(c2nc(=O)n(-c3c(C)ccnc3C(C)C)c3nc(-c4c(O)cccc4F)c(F)cc23)C(C)C1 (stereo unspecified) + CCN1C(C(=O)NC23CCC(C(=O)O)(CC2)CC3)C(c2cccc(Cl)c2F)C2(C(=O)Nc3cc(Cl)ccc32)C12CCCCC2
8770 nM: IC50 (second compound 3 µM)
inactive: viability, T/C [1] 94.8% | viability, T/C [2] 79.8% | viability, T/C [3] 85.8% | viability, T/C [4] 92.5% | viability, T/C [5] 77.6% | viability, T/C [6] 71.8% | viability, T/C [7] 90.1% | viability, T/C [8] 80.2% | viability, T/C [9] 93.2% | viability, T/C [10] 89.3% | viability, T/C [11] 84.8% | viability, T/C [12] 71.2% | viability, T/C [13] 101% | viability, T/C [14] 93.3% | viability, T/C [15] 98.6% | viability, T/C [16] 94.7% | viability, T/C [17] 84% | viability, T/C [18] 71.4% | viability, T/C [19] 99.7% | viability, T/C [20] 81.2% | viability, T/C [21] 94.1% | viability, T/C [22] 93.3% | viability, T/C [23] 111% | viability, T/C [24] 69.2% | viability, T/C [25] 85.2% | viability, T/C [26] 84.7% | viability, T/C [27] 89.2% | viability, T/C [28] 77.7% | viability, T/C [29] 83.3% | viability, T/C [30] 67% | viability, T/C [31] 68.6% | viability, T/C [32] 72.6% | viability, T/C [33] 72.4% | viability, T/C [34] 98.5% | viability, T/C [35] 82.3% | viability, T/C [36] 46.3%
> 10000 nM: IC50 (second compound 0.00949 µM) | IC50 (second compound 0.03 µM) | IC50 (second compound 0.0949 µM) | IC50 (second compound 0.3 µM) | IC50 (second compound 0.949 µM)

COc1c(OCCCN2CCOCC2)ccc2c3n(c(=NC(=O)c4cnc(N)nc4)nc12)CCN3 + CCN1C(C(=O)NC23CCC(C(=O)O)(CC2)CC3)C(c2cccc(Cl)c2F)C2(C(=O)Nc3cc(Cl)ccc32)C12CCCCC2
177 nM: IC50 (second compound 0.00949 µM)
213 nM: IC50 (second compound 0.0949 µM)
173 nM: IC50 (second compound 0.3 µM)
180 nM: IC50 (second compound 0.949 µM)
182 nM: IC50 (second compound 0.03 µM)
inactive: viability, T/C (second compound 0.00949 µM, first compound 0.00316 µM) 95.6% | viability, T/C (second compound 0.00949 µM, first compound 0.01 µM) 85.8% | viability, T/C [1] 85% | viability, T/C [2] 64.9% | viability, T/C [3] 34.6% | viability, T/C [4] 16.3% | viability, T/C (second compound 0.03 µM, first compound 0.00316 µM) 95.6% | viability, T/C (second compound 0.03 µM, first compound 0.01 µM) 79.2% | viability, T/C [7] 79.5% | viability, T/C [8] 56.2% | viability, T/C [9] 43.8% | viability, T/C [10] 13.9% | viability, T/C (second compound 0.0949 µM, first compound 0.00316 µM) 93.7% | viability, T/C (second compound 0.0949 µM, first compound 0.01 µM) 83.4% | viability, T/C [13] 81.3% | viability, T/C [14] 79.4% | viability, T/C [15] 34.8% | viability, T/C [16] 16.9% | viability, T/C (second compound 0.3 µM, first compound 0.00316 µM) 120% | viability, T/C (second compound 0.3 µM, first compound 0.01 µM) 76.9% | viability, T/C [19] 84.7% | viability, T/C [20] 67% | viability, T/C [21] 37.1% | viability, T/C [22] 17.4% | viability, T/C (second compound 0.949 µM, first compound 0.00316 µM) 85.1% | viability, T/C (second compound 0.949 µM, first compound 0.01 µM) 74% | viability, T/C [25] 86.8% | viability, T/C [26] 58.5% | viability, T/C [27] 39.2% | viability, T/C [28] 15.4% | viability, T/C (second compound 3 µM, first compound 0.00316 µM) 88.2% | viability, T/C (second compound 3 µM, first compound 0.01 µM) 71% | viability, T/C [31] 73.3% | viability, T/C [32] 55% | viability, T/C [33] 32.8% | viability, T/C [34] 15.2%
127 nM: IC50 (second compound 3 µM)

From PubChem BioAssay AID1963427 (Molecular Pharmacology Branch, DTP, NCI, 2024)
